These are literature values, as cited in patent publication US20090004173A1, “Diagnosis and Treatment of Drug Resistant Leukemia” (priority 2004, published 2009).

Like-named read-outs stand apart in the source and are kept apart here.

Series [1] deals with non-leukemic cell lines. To be noted: Niitsu et al. (2000).
Series [2] relates to leukemia cells. Particulars: for LC50 values for classification of ALL: Resistant / LC50 values for classification of ALL: Sensitive: LC50 by MTT, cut-off previously associated with treatment outcome.
The mark [3] stands for this setting: classification cut-off: cell is resistant if LC-50 is equal to or greater than the value.

As for `CCCC(=O)OCOC(=O)C(C)(C)C` [AN-9], the “sensitization to the cytotoxicity of daunorubicin and doxorubicin” value in series [1] is “sensitize non-leukemic cell lines to the cytotoxicity of daunorubicin and doxorubicin”.
As for `COc1cccc2c1C(=O)c1c(O)c3c(c(O)c1C2=O)C[C@@](O)(C(C)=O)C[C@@H]3O[C@H]1C[C@H](N)[C@H](O)[C@H](C)O1` [Daunorubicin, daunorubicin], in series [2], the “LC50 values for classification of ALL: Resistant” value (shortened to “LC50 values … Resistant”) is “≧0.114 μg/ml” and the “LC50 values for classification of ALL: Sensitive” value (“LC50 values … Sensitive” for short) was “≦0.075 μg/ml”. Also, the “LC-50 values for classifying leukemia cells as drug-resistant” value (“LC-50 values” below) in series [2] (setting [3]) was “≧0.114 μg/ml”.
With `C[C@]12C=CC(=O)C=C1CC[C@@H]1[C@@H]2[C@@H](O)C[C@@]2(C)[C@H]1CC[C@]2(O)C(=O)CO` [Prednisolone, prednisolone], in series [2], the “LC50 values … Resistant” value was “≧150 μg/ml” and the “LC50 values … Sensitive” value is “≦0.100 μg/ml”. Further, the “LC-50 values” value in series [2] (setting [3]) is “≧150 μg/ml”.
As for `CC[C@]1(O)C[C@H]2CN(CCc3c([nH]c4ccccc34)[C@@](C(=O)OC)(c3cc4c(cc3OC)N(C=O)[C@H]3[C@@](O)(C(=O)OC)[C@H](OC(C)=O)[C@]5(CC)C=CCN6CC[C@]43[C@@H]65)C2)C1` [Vincristine, vincristine], in series [2], the “LC50 values … Resistant” value is “≧1.758 μg/ml” and the “LC50 values … Sensitive” value was “≦0.391 μg/ml”. Besides, the “LC-50 values” value in series [2] (setting [3]) is “≧1.758 μg/ml”.

B1: L-asparaginase (protein, UniProt P00805 23-348, looked up)
L-asparaginase 2: LPNITILATGGTIAGGGDSATKSNYTVGKVGVENLVNAVPQLKDIANVKGEQVVNIGSQDMNDNVWLTLAKKINTDCDKTDGFVITHGTDTMEETAYFLDLTVKCDKPVVMVGAMRPSTSMSADGPFNLYNAVVTAADKASANRGVLVVMNDTVLDGRDVTKTNTTDVATFKSVNYGPLGYIHNGKIDYQRTPARKHTSDTPFDVSKLNELPKVGIVYNYANASDLPAKALVDAGYDGIVSAGVGNGNLYKSVFDTLATAAKTGTAVVRSSRVPTGATTQDAEVDDAKYGFVASGTLNPQKARVLLQLALTQTKDPQQIQQIFNQY
For the molecule B1, in series [2], the “LC-50 values” value is “≧0.912 IU/ml”, the “LC50 values … Resistant” value is recorded as “≧0.912 IU/ml” and the “LC50 values … Sensitive” value is “≦0.033 IU/ml”.
